Tested on: moderate-to-severe chronic spontaneous urticaria (CSU)
Assay: Phase 2 CSU study: hives severity score over 7 days (HSS7)
Type: in vivo, human
Parameters: key to HSS7 Change from baseline, Median / HSS7, Median / HSS7, Max / HSS7 Change from baseline, Q1 / HSS7 Change from baseline, Q3 / HSS7 Change from baseline, Max: 7-day sum of daily hive scores, each 0 = none to 3 = >50 hives
Description: The study comprises a 12 week, randomized, double-blind, placebo-controlled, multi-center, dose-ranging efficacy and safety phase, followed by a 40 week open label extension (OLE) phase (see FIG. 1).
The study consists of three phases and an optional OLE phase.
The UAS is a validated PRO measure. The daily UAS is the sum of the daily Hive Severity Score (HSS, ranging from 0=None to 3=more than 50 hives) and the daily Itch Severity Score (ISS, ranging from 0=None to 3=intense), the 2 key urticaria signs and symptoms which are wheals and itch. The daily UAS scores range from 0 to 6 point/day. Daily UAS scores are summed over 7-day period to create the UAS7, ranging from 0 to 42, and are composed of the HSS7 and ISS7 components. […] Patients were to complete the UAS using the e-diary. The e-diary was to be used once daily on the same time of each day recording of participant's answers to the urticaria activity score over 7 days (UAS7) questionnaire. For participants who entered the OLE phase, their answers to the UAS7 questionnaire were also to be collected from Week 20 to Week24 and from Week 48 to Week 52.
The following secondary endpoints were to be analyzed using the same approach as for the primary endpoint: • Change from baseline in UAS7 at Week 4 • Change from baseline in UAS7 at Week 12 (for US and US reference countries) • Change from baseline in ISS7 at Week 12 (except US and US reference countries) • Change from baseline in HSS7 at Week 12

[1] = 400 mg BID, Week 11, ITT Population
[2] = 400 mg BID, Week 12, ITT population
[3] = 400 mg BID, Week 12, Omalizumab-Naïve Population
[4] = 400 mg QPM, Omalizumab-Naïve Population, last block under Week 12, double-blind period, WOCF imputation
[5] = 400 mg QPM, Week 1, ITT Population
[6] = 400 mg QPM, Week 1, Omalizumab-Naïve Population
[7] = 400 mg QPM, Week 2, ITT Population
[8] = 400 mg QPM, Week 2, Omalizumab-Naïve Population
[9] = 400 mg QPM, Week 3, ITT Population
[10] = 400 mg QPM, Week 3, Omalizumab-Naïve Population
[11] = 400 mg QPM, Week 4, ITT population
[12] = 400 mg QPM, Week 4, Omalizumab-Naïve Population
[13] = 400 mg QPM, Week 5, ITT Population
[14] = 400 mg QPM, Week 5, Omalizumab-Naïve Population
[15] = 400 mg QPM, Week 6, ITT Population
[16] = 400 mg QPM, Week 6, Omalizumab-Naïve Population
[17] = 400 mg QPM, Week 7, ITT Population
[18] = 400 mg QPM, Week 7, Omalizumab-Naïve Population
[19] = 400 mg QPM, Week 8, ITT population
[20] = 400 mg QPM, Week 8, Omalizumab-Naïve Population
[21] = 400 mg QPM, Week 9, ITT Population

## CC(C)(C=C(C#N)C(=O)N1CCC[C@@H](n2nc(-c3ccc(Oc4ccccc4)cc3F)c3c(N)ncnc32)C1)N1CCN(C2COC2)CC1 [rilzabrutinib, (R)-2-[3-[4-amino-3-(2-fluoro-4-phenoxy-phenyl)pyrazolo[3,4-d]pyrimidin-1-yl]piperidine-1-carbonyl]-4-methyl-4-[4-(oxetan-3-yl)piperazin-1-yl]pent-2-enenitrile]
[1]
  HSS7 % Change from baseline LS Mean (SE): −49.14 (7.06) %
  HSS7 Change difference for rilzabrutinib vs.placebo LS Mean (95% CI): −2.46 (−5.05, 0.13)
  HSS7 Change from baseline LS Mean (SE): −7.01 (0.99)
  HSS7 Postbaseline Mean (SD): 6.79 (7.06)
400 mg BID, Week 11, Omalizumab-Naïve Population
  HSS7 Postbaseline Mean (SD): 7.13 (7.07)
400 mg BID, Week 11, Omalizumab-Naïve Population with Outlier Removed from Analysis
  HSS7 Postbaseline Mean (SD): 7.13 (7.07)
[2]
  HSS7 % Change difference for rilzabrutinib vs.placebo LS Mean (95% CI): −19.13 %
  HSS7 % Change from baseline LS Mean (SE): −46.86 (7.34) %
  HSS7 Change difference for rilzabrutinib vs.placebo LS Mean (95% CI): −1.89 (−4.58, 0.80)
  HSS7 Change from baseline LS Mean (SE): −6.78 (1.02)
  HSS7 Postbaseline Mean (SD): 7.08 (7.32)
[3]
  HSS7 Change difference for rilzabrutinib vs.placebo LS Mean (95% CI): −2.12 (−4.97, 0.73)
  HSS7 Change from baseline LS Mean (SE): −6.52 (1.07)
  HSS7 Postbaseline Mean (SD): 7.52 (7.21)
400 mg BID, Week 12, Omalizumab-Naïve Population with Outlier Removed from Analysis
  HSS7 Postbaseline Mean (SD): 7.52 (7.21)
[4]
  HSS7, Max: 21.0
  HSS7, Min: 0.0
  HSS7 Change from baseline, Max: 1.5
  HSS7 Change from baseline, Mean (SD): −9.87 (8.34)
  HSS7 Change from baseline, Median: −12.00
  HSS7 Change from baseline, Min: −19.6
  HSS7 Change from baseline, Q1: −18.00
  HSS7 Change from baseline, Q3: 0.00
  HSS7 Percent change from baseline, Max: 9.4%
  HSS7 Percent change from baseline, Mean (SD): −64.85 (48.75) percent
  HSS7 Percent change from baseline, Median: −93.33%
  HSS7 Percent change from baseline, Q1: −100.00%
  HSS7 Percent change from baseline, Q3: 0.00%
[5]
  HSS7 % Change difference for rilzabrutinib vs.placebo LS Mean (95% CI): −16.53 %
  HSS7 % Change from baseline LS Mean (SE): −25.22 (5.61) %
  HSS7 Change difference for rilzabrutinib vs.placebo LS Mean (95% CI): −2.14 (−4.59, 0.31)
  HSS7 Change from baseline LS Mean (SE): −3.98 (0.76)
  HSS7 Postbaseline Mean (SD): 10.76 (4.83)
[6]
  HSS7 % Change difference for rilzabrutinib vs.placebo LS Mean (95% CI): −17.05 %
  HSS7 % Change from baseline LS Mean (SE): −24.49 (5.76) %
  HSS7 Change difference for rilzabrutinib vs.placebo LS Mean (95% CI): −2.16 (−4.69, 0.37)
  HSS7 Change from baseline LS Mean (SE): −3.79 (0.77)
  HSS7 Postbaseline Mean (SD): 10.73 (4.90)
400 mg QPM, Week 1, Omalizumab-Naïve Population with Outlier Removed from Analysis
  HSS7 Postbaseline Mean (SD): 10.73 (4.90)
[7]
  HSS7 % Change difference for rilzabrutinib vs.placebo LS Mean (95% CI): −7.67 (−23.03, 7.68) %
  HSS7 % Change from baseline LS Mean (SE): −24.23 (5.75) %
  HSS7 Change difference for rilzabrutinib vs.placebo LS Mean (95% CI): −0.95 (−3.07, 1.17)
  HSS7 Change from baseline LS Mean (SE): −3.87 (0.80)
  HSS7 Postbaseline Mean (SD): 10.96 (4.91)
[8]
  HSS7 % Change difference for rilzabrutinib vs.placebo LS Mean (95% CI): −8.35 (−24.24, 7.54) %
  HSS7 % Change from baseline LS Mean (SE): −23.62 (5.84) %
  HSS7 Postbaseline Mean (SD): 10.90 (4.97)
400 mg QPM, Week 2, Omalizumab-Naïve Population with Outlier Removed from Analysis
  HSS7 Postbaseline Mean (SD): 10.90 (4.97)
[9]
  HSS7 % Change difference for rilzabrutinib vs.placebo LS Mean (95% CI): −9.55 (−25.43, 6.33) %
  HSS7 % Change from baseline LS Mean (SE): −28.70 (5.96) %
  HSS7 Change difference for rilzabrutinib vs.placebo LS Mean (95% CI): −0.94 (−3.15, 1.28)
  HSS7 Change from baseline LS Mean (SE): −4.44 (0.83)
  HSS7 Postbaseline Mean (SD): 10.40 (4.90)
[10]
  HSS7 % Change difference for rilzabrutinib vs.placebo LS Mean (95% CI): −10.40 %
  HSS7 % Change from baseline LS Mean (SE): −28.10 (6.12) %
  HSS7 Postbaseline Mean (SD): 10.41 (4.97)
400 mg QPM, Week 3, Omalizumab-Naïve Population with Outlier Removed from Analysis
  HSS7 Postbaseline Mean (SD): 10.41 (4.97)
[11]
  HSS7 % Change difference for rilzabrutinib vs.placebo LS Mean (95% CI): −7.88 (−24.05, 8.29) %
  HSS7 % Change from baseline LS Mean (SE): −26.58 (6.02) %
  HSS7 Change difference for rilzabrutinib vs.placebo LS Mean (95% CI): −0.78 (−3.03, 1.46)
  HSS7 Change from baseline LS Mean (SE): −4.23 (0.84)
[12]
  HSS7 % Change difference for rilzabrutinib vs.placebo LS Mean (95% CI): −10.20 %
  HSS7 % Change from baseline LS Mean (SE): −26.07 (6.19) %
[13]
  HSS7 % Change difference for rilzabrutinib vs.placebo LS Mean (95% CI): −2.80 %
  HSS7 % Change from baseline LS Mean (SE): −31.95 (5.91) %
  HSS7 Change difference for rilzabrutinib vs.placebo LS Mean (95% CI): −0.33 (−2.64, 1.97)
  HSS7 Change from baseline LS Mean (SE): −4.97 (0.86)
  HSS7 Postbaseline Mean (SD): 9.59 (5.07)
[14]
  HSS7 % Change difference for rilzabrutinib vs.placebo LS Mean (95% CI): −0.56 %
  HSS7 % Change from baseline LS Mean (SE): −31.12 (6.01) %
  HSS7 Postbaseline Mean (SD): 9.63 (5.13)
400 mg QPM, Week 5, Omalizumab-Naïve Population with Outlier Removed from Analysis
  HSS7 Postbaseline Mean (SD): 9.63 (5.13)
[15]
  HSS7 % Change difference for rilzabrutinib vs.placebo LS Mean (95% CI): −7.12 %
  HSS7 % Change from baseline LS Mean (SE): −31.19 (6.73) %
  HSS7 Change difference for rilzabrutinib vs.placebo LS Mean (95% CI): −0.50 (−3.00, 2.00)
  HSS7 Change from baseline LS Mean (SE): −4.76 (0.93)
  HSS7 Postbaseline Mean (SD): 9.89 (5.69)
[16]
  HSS7 % Change difference for rilzabrutinib vs.placebo LS Mean (95% CI): −6.27 %
  HSS7 % Change from baseline LS Mean (SE): −30.30 (6.90) %
  HSS7 Postbaseline Mean (SD): 9.94 (5.76)
400 mg QPM, Week 6, Omalizumab-Naïve Population with Outlier Removed from Analysis
  HSS7 Postbaseline Mean (SD): 9.94 (5.76)
[17]
  HSS7 % Change difference for rilzabrutinib vs.placebo LS Mean (95% CI): −5.92 %
  HSS7 % Change from baseline LS Mean (SE): −29.88 (6.15) %
  HSS7 Change difference for rilzabrutinib vs.placebo LS Mean (95% CI): −0.53 (−2.87, 1.81)
  HSS7 Change from baseline LS Mean (SE): −4.61 (0.88)
  HSS7 Postbaseline Mean (SD): 10.38 (5.19)
[18]
  HSS7 % Change difference for rilzabrutinib vs.placebo LS Mean (95% CI): −3.82 %
  HSS7 % Change from baseline LS Mean (SE): −29.51 (6.35) %
  HSS7 Postbaseline Mean (SD): 10.43 (5.27)
400 mg QPM, Week 7, Omalizumab-Naïve Population with Outlier Removed from Analysis
  HSS7 Postbaseline Mean (SD): 10.43 (5.27)
[19]
  HSS7 % Change difference for rilzabrutinib vs.placebo LS Mean (95% CI): −1.88 %
  HSS7 % Change from baseline LS Mean (SE): −30.95 (6.43) %
  HSS7 Change difference for rilzabrutinib vs.placebo LS Mean (95% CI): 0.11 (−2.37, 2.59)
  HSS7 Change from baseline LS Mean (SE): −4.64 (0.93)
  HSS7 Postbaseline Mean (SD): 10.43 (5.63)
[20]
  HSS7 % Change difference for rilzabrutinib vs.placebo LS Mean (95% CI): −2.41 %
  HSS7 % Change from baseline LS Mean (SE): −30.42 (6.75) %
[21]
  HSS7 % Change difference for rilzabrutinib vs.placebo LS Mean (95% CI): −10.31 %
  HSS7 % Change from baseline LS Mean (SE): −34.23 (6.69) %
  HSS7 Change difference for rilzabrutinib vs.placebo LS Mean (95% CI): −0.94 (−3.47, 1.59)
  HSS7 Change from baseline LS Mean (SE): −5.06 (0.95)
  HSS7 Postbaseline Mean (SD): 9.77 (5.51)
400 mg QPM, Week 9, Omalizumab-Naïve Population
  HSS7 Postbaseline Mean (SD): 9.82 (5.59)
400 mg QPM, Week 9, Omalizumab-Naïve Population with Outlier Removed from Analysis
  HSS7 Postbaseline Mean (SD): 9.82 (5.59)

Reference: US20260256792A1, “TREATMENT OF CHRONIC SPONTANEOUS URTICARIA BY ADMINISTERING (R)-2-[3-[4-AMINO-3-(2-FLUORO-4-PHENOXY-PHENYL)PYRAZOLO[3,4-D]PYRIMIDIN-1-YL]PIPERIDINE-1-CARBONYL]-4-METHYL-4-[4-(OXETAN-3-YL)PIPERAZIN-1-YL]PENT-2-ENENITRILE” (priority 2023, published 2026)
